Source: patent publication US11136349
Read-outs that look alike come from different tables or passages of the source.

Conditions: other bond

Question: Which ring closure, conversion (from acryloyl-Phe-Met-Leu-Glu(tBu)-Gly-OH, 17-membered ring, Ir[dF(CF3)ppy]2(dtbbpy)PF6/K2HPO4/TRIP-SH/blue LED, DMF, 2.5 mM) does the source give for `CSCC[C@@H]1NC(=O)[C@H](Cc2ccccc2)NC(=O)CCCNC(=O)[C@H](CCC(=O)OC(C)(C)C)NC(=O)[C@H](CC(C)C)NC1=O` [cyclo-[Aba-Phe-Met-Leu-Glu(OtBu)]] here?
Answer: 40%

Question: For `CC(C)C[C@@H]1NC(=O)[C@H](Cc2ccc(OC(C)(C)C)cc2)NC(=O)[C@H](C(C)C)NC(=O)[C@H]([C@@H](C)OC(C)(C)C)NC(=O)[C@H](C)NC(=O)[C@@H]2CCCN2C(=O)[C@H](CC(C)C)NC(=O)[C@H](Cc2ccccc2)NC(=O)[C@H](C)NC(=O)CCCNC1=O` [cyclo-[Aba-Ala-Phe-Leu-Pro-Ala-Thr(tBu)-Val-Tyr(tBu)-Leu]], which ring closure, conversion (from acryloyl-Ala-Phe-Leu-Pro-Ala-Thr(tBu)-Val-Tyr(tBu)-Leu-Gly-OH, 32-membered ring, Ir[dF(CF3)ppy]2(dtbbpy)PF6/K2HPO4/blue LED, DMF, 2.5 mM) is on record?
Answer: 64%

Question: For `C[C@@H]1NC(=O)CCCNC(=O)[C@H](Cc2ccc(OC(C)(C)C)cc2)NC1=O` [cyclo-[Aha-Ala-Tyr(tBu)]], which ring closure, conversion (from acryloyl-Ala-Tyr(tBu)-Gly-OH, 11-membered ring, Ir[dF(CF3)ppy]2(dtbbpy)PF6/K2HPO4/TRIP-SH/blue LED, DMF, 1.0 mM) is on record?
Answer: 24%

Question: With `CC(C)[C@@H]1NC(=O)CCCNC(=O)[C@H](Cc2cn(C(=O)OC(C)(C)C)c3ccccc23)NC(=O)[C@H](Cc2ccccc2)NC(=O)[C@H]([C@@H](C)OC(C)(C)C)NC1=O` [cyclo-[Aba-Val-Thr(tBu)-Phe-Trp(Boc)] as the compound, how does the ring closure, conversion (from acryloyl-Val-Thr(tBu)-Phe-Trp(Boc)-Gly-OH, 17-membered ring, Ir[dF(CF3)ppy]2(dtbbpy)PF6/K2HPO4/blue LED, DMF, 2.5 mM) read?
Answer: 56%

Question: Which ring closure, conversion (from acryloyl-Phe-Leu-Ala-Phe-Aepe-OH, 17-membered ring, Ir[dF(CF3)ppy]2(dtbbpy)PF6/K2HPO4/blue LED, DMSO, 2.5 mM) does the source give for `CC(C)C[C@@H]1NC(=O)[C@H](Cc2ccccc2)NC(=O)CCC2(CCCC2)NC(=O)[C@H](Cc2ccccc2)NC(=O)[C@H](C)NC1=O` [cyclo[(3-Aep)pa-Phe-[Leu-Aa-Phe]] here?
Answer: 49%

Question: Which ring closure, conversion (from acryloyl-Phe-Leu-Ala-Phe-Acc-OH, 17-membered ring, Ir[dF(CF3)ppy]2(dtbbpy)PF6/K2HPO4/blue LED, DMSO, 2.5 mM) does the source give for `CC(C)C[C@@H]1NC(=O)[C@H](Cc2ccccc2)NC(=O)CCC2(CC2)NC(=O)[C@H](Cc2ccccc2)NC(=O)[C@H](C)NC1=O` [cyclo[(3-Ac)pa-Phe-Leu-Ala-Phe]] here?
Answer: 48%

Question: Which ring closure, conversion (from acryloyl-Phe-Leu-Ala-His(Trt)-Gly-OH, 17-membered ring, Ir[dF(CF3)ppy]2(dtbbpy)PF6/K2HPO4/blue LED, DMF, 1.0 mM) does the source give for `CC(C)C[C@@H]1NC(=O)[C@H](Cc2ccccc2)NC(=O)CCCNC(=O)[C@H](Cc2cn(C(c3ccccc3)(c3ccccc3)c3ccccc3)cn2)NC(=O)[C@H](C)NC1=O` [cyclo-[Aba-Phe-Leu-Ala-His(Trt)]] here?
Answer: 65%

Question: Which ring closure, conversion (from acryloyl-Phe-Leu-Ala-Phe-Glu-OH, 17-membered ring, Ir[dF(CF3)ppy]2(dtbbpy)PF6/K2HPO4/blue LED, DMF, 2.5 mM) does the source give for `CC(C)C[C@@H]1NC(=O)[C@H](Cc2ccccc2)NC(=O)CCC(CCC(=O)O)NC(=O)[C@H](Cc2ccccc2)NC(=O)[C@H](C)NC1=O` (stereo partly drawn) [cyclo-[Ahda-Phe-Leu-Ala-Phe]] here?
Answer: 38%

Question: With `CC(C)C[C@@H]1NC(=O)[C@H](Cc2ccccc2)NC(=O)C(c2ccccc2)CCNC(=O)[C@H](Cc2ccccc2)NC(=O)[C@H](C)NC1=O` (stereo partly drawn) [cyclo-[Aba(2-Ph)-Phe-Le-Ala-Phe]] as the compound, how does the ring closure, conversion (from α-phenylacryloyl-Phe-Leu-Ala-Phe-Gly-OH, 17-membered ring, Ir[dF(CF3)ppy]2(dtbbpy)PF6/K2HPO4/blue LED, DMF, 2.5 mM) read?
Answer: 95%

Question: For `CC(C)[C@@H]1NC(=O)[C@H](Cc2ccc(OC(C)(C)C)cc2)NC(=O)[C@H](C)N(C)C(=O)[C@H](Cc2ccccc2)NC(=O)CCCNC1=O` [cyclo-[Aba-Phe-(Me)Ala-Tyr(tBu)-Val]], which ring closure, conversion (from acryloyl-Phe-MeAla-Tyr(tBu)-Val-Gly-OH, 17-membered ring, Ir[dF(CF3)ppy]2(dtbbpy)PF6/K2HPO4/blue LED, DMF, 5.0 mM) is on record?
Answer: 66%

Question: Which ring closure, conversion (47-membered ring, Ir[dF(CF3)ppy]2(dtbbpy)PF6/K2HPO4/blue LED, DMF, 0.25 mM) does the source give for “cyclo-[Aba-Ala-Leu-Pbe-Lys(Boc)-Pro-Ala-Phe-Ala-Leu-Pro-Glu(OBu)-Leu-Phe-VaI]” here?
Answer: 60%

Question: With `CC(C)C[C@@H]1NC(=O)[C@H](Cc2ccccc2)NC(=O)CCCNC(=O)[C@H](Cc2ccccc2)NC(=O)[C@H](C)NC1=O` [cyclo-[Aba-Phe-Leu-Ala-Phe]] as the compound, how does the ring closure, conversion (from acryloyl-Phe-Leu-Ala-Phe-Gly-OH, 17-membered ring, Ir[dF(CF3)ppy]2(dtbbpy)PF6/K2HPO4/blue LED, DMF, 2.5 mM) read?
Answer: 93%

Question: For `CC(C)CC1CCC(=O)N[C@@H](Cc2ccccc2)C(=O)N[C@@H](CC(C)C)C(=O)N[C@@H](C)C(=O)N[C@@H](Cc2ccccc2)C(=O)N1C` (stereo partly drawn) [cyclo-[(Me)Aba(4-iBu)-Phe-Leu-Ala-Phe]], which ring closure, conversion (from acryloyl-Phe-Leu-Ala-Phe-MeLeu-OH, 17-membered ring, Ir[dF(CF3)ppy]2(dtbbpy)PF6/K2HPO4/blue LED, DMF, 5.0 mM) is on record?
Answer: 77%

Question: For `CC(C)C[C@@H]1NC(=O)[C@H](Cc2ccccc2)NC(=O)CCCNC(=O)[C@H](Cc2ccc(Br)cc2)NC(=O)[C@H](C)NC1=O` [cyclo-[Aba-Phe-Leu-Ai-Phe(4-Br)]], which ring closure, conversion (from acryloyl-Phe-Leu-Ala-Phe(4-Br)-Gly-OH, 17-membered ring, Ir[dF(CF3)ppy]2(dtbbpy)PF6/K2HPO4/TRIP-SH/blue LED, DMF, 2.5 mM) is on record?
Answer: 48%

Question: With `CC(C)C[C@@H]1NC(=O)[C@H](CCC(=O)NC(c2ccccc2)(c2ccccc2)c2ccccc2)NC(=O)[C@H](Cc2ccccc2)NC(=O)CCCNC(=O)[C@H](CCCCNC(=O)OC(C)(C)C)NC1=O` [cyclo-[Aba-Phe-Gln(Trt)-Leu-Lys(Boc)]] as the compound, how does the ring closure, conversion (from acryloyl-Phe-Gln(Trt)-Leu-Lys(Boc)-Gly-OH, 17-membered ring, Ir[dF(CF3)ppy]2(dtbbpy)PF6/K2HPO4/blue LED, DMF, 2.5 mM) read?
Answer: 94%

Question: For `C[C@@H]1NC(=O)[C@H](CCCNC(=NC(=O)OC(C)(C)C)NC(=O)OC(C)(C)C)NC(=O)[C@H](Cc2ccccc2)NC(=O)CCCNC(=O)[C@H](COC(C)(C)C)NC1=O` [cyclo-[Aha-Phe-Arg(Bo)2-Ser(tBu)-Ala]], which ring closure, conversion (from acryloyl-Phe-Arg(Boc)2-Ala-Ser(tBu)-Gly-OH, 17-membered ring, Ir[dF(CF3)ppy]2(dtbbpy)PF6/K2HPO4/TRIP-SH/blue LED, DMF, 2.5 mM) is on record?
Answer: 59%

Question: With `CC(C)C[C@@H]1NC(=O)[C@H](CCC(=O)OC(C)(C)C)NC(=O)[C@@H]2CCCN2C(=O)[C@H](C)NC(=O)[C@H](Cc2ccccc2)NC(=O)CCCNC(=O)[C@H](C)NC(=O)[C@H](Cc2ccccc2)NC1=O` [cyclo-[Aba-Phe-Leu-Ala-Phe]] as the compound, how does the ring closure, conversion (from acryloyl-Phe-Ala-Pro-Glu(OtBu)-Leu-Phe-Ala-Gly-OH, 26-membered ring, Ir[dF(CF3)ppy]2(dtbbpy)PF6/K2HPO4/blue LED, DMF, 5.0 mM) read?
Answer: 61%

Question: With `C#CC[C@@H]1NC(=O)[C@H](Cc2ccccc2)NC(=O)CCCNC(=O)[C@H](CCCCNC(=O)OC(C)(C)C)NC(=O)[C@H](C)NC1=O` [cyclo-[Aba-Phe-Pra-Ala-Lys(Boc)]] as the compound, how does the ring closure, conversion (from acryloyl-Phe-Pra-Ala-Lys(Boc)-Gly-OH, 17-membered ring, Ir[dF(CF3)ppy]2(dtbbpy)PF6/K2HPO4/blue LED, DMF, 5.0 mM) read?
Answer: 82%
